Laboratory results reported in ChEMBL document CHEMBL4387741, “Optimization of novel reversible Bruton's tyrosine kinase inhibitors identified using Tethering-fragment-based screens” (Bioorg Med Chem, 2019).

Key:
[1] = target: ALK tyrosine kinase receptor (Homo sapiens) (UniProt Q9UM73); test: Inhibition of wild-type human partial length ALK (I1088 to E1409 residues) expressed in mammalian expression system at 1 uM by Kinomescan method relative to control
[2] = target: Serine/threonine-protein kinase Chk1 (Homo sapiens) (UniProt O14757); test: Inhibition of wild-type human partial length CHEK1 (M1 to G289 residues) expressed in bacterial expression system at 1 uM by Kinomescan method relative to control
Serine/threonine-protein kinase Chk1 (Homo sapiens), sequence (O14757 whole entry, the tested form may be a part): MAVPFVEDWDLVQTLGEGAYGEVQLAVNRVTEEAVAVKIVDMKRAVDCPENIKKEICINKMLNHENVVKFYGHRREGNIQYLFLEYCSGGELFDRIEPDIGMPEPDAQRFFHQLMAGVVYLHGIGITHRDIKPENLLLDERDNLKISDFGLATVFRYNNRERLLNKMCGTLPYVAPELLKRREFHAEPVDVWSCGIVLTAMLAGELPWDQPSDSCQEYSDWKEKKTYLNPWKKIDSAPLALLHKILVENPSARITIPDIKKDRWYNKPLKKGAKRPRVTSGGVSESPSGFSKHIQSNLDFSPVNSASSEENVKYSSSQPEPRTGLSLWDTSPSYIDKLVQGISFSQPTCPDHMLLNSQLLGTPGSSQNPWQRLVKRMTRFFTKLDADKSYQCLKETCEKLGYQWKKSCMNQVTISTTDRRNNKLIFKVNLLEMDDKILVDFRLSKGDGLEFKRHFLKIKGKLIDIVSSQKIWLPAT

[3] = target: Death-associated protein kinase 1 (Homo sapiens) (UniProt P53355); test: Inhibition of wild-type human partial length DAPK1 (M1 to F296 residues) expressed in bacterial expression system at 1 uM by Kinomescan method relative to control
[4] = tested on: Receptor-type tyrosine-protein kinase FLT3 (Homo sapiens), P36888 [UNDEFINED MUTATION]; test: Inhibition of human partial length FLT3 ITD/D835V double mutant expressed in bacterial expression system at 1 uM by Kinomescan method relative to control
[5] = target: Tyrosine-protein kinase Fyn (Homo sapiens) (UniProt P06241); test: Inhibition of wild-type human partial length FYN (T243 to L534 residues) expressed in bacterial expression system at 1 uM by Kinomescan method relative to control
Tyrosine-protein kinase Fyn (Homo sapiens), sequence (P06241 2-537 limits assumed): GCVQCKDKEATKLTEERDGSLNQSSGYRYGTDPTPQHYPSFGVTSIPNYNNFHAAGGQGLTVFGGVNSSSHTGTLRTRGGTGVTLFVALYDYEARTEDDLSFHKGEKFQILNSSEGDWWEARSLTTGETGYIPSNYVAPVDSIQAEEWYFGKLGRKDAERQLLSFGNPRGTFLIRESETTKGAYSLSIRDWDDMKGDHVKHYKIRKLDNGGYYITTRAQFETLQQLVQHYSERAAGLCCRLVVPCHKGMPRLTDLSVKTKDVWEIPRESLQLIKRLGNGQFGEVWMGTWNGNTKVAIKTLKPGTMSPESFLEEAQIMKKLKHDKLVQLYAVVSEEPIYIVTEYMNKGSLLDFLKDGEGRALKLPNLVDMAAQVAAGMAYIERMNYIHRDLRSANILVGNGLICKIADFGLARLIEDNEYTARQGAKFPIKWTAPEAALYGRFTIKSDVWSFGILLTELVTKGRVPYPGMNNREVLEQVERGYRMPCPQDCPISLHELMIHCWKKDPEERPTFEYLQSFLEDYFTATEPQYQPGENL

[6] = target: G protein-coupled receptor kinase 3 (Homo sapiens) (UniProt P35626); test: Inhibition of wild-type human full length GRK3 (M1 to L688 residues) expressed in mammalian expression system at 1 uM by Kinomescan method relative to control
[7] = tested on: Mast/stem cell growth factor receptor Kit (Homo sapiens), P10721 [V559D]; test: Inhibition of human partial length KIT V559D mutant (Y545 to D952 residues) expressed in bacterial expression system at 1 uM by Kinomescan method relative to control
[8] = target: MAP kinase-activated protein kinase 2 (Homo sapiens) (UniProt P49137); test: Inhibition of wild-type human partial length MAPKAPK2 (V48 to D345 residues) expressed in bacterial expression system at 1 uM by Kinomescan method relative to control
MAP kinase-activated protein kinase 2 (Homo sapiens), sequence (P49137 whole entry, looked up, the tested form may be a part): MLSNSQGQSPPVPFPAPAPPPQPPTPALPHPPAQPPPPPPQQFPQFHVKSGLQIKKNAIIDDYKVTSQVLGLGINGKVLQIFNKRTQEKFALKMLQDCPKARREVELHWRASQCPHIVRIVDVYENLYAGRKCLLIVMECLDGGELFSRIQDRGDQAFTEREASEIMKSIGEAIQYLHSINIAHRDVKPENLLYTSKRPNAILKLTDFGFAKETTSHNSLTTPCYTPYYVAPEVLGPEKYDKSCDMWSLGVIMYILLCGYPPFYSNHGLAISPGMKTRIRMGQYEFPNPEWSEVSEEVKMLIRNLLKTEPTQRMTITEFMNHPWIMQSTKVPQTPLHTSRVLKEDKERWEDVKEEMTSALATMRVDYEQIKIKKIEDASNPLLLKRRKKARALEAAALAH

[9] = target: Serine/threonine-protein kinase PAK 4 (Homo sapiens) (UniProt O96013); test: Inhibition of wild-type human partial length PAK4 (Q144 to R438 residues) expressed in bacterial expression system at 1 uM by Kinomescan method relative to control
[10] = target: Phosphatidylinositol 4-kinase beta (Homo sapiens) (UniProt Q9UBF8); test: Inhibition of wild-type human full length PIK4CB (M1 to M828 residues) expressed in mammalian expression system at 1 uM by Kinomescan method relative to control
[11] = target: Serine/threonine-protein kinase PLK2 (Homo sapiens) (UniProt Q9NYY3); test: Inhibition of wild-type human partial length PLK2 (H58 to F354 residues) expressed in mammalian expression system at 1 uM by Kinomescan method relative to control
Serine/threonine-protein kinase PLK2 (Homo sapiens), sequence (Q9NYY3 whole entry, looked up, the tested form may be a part): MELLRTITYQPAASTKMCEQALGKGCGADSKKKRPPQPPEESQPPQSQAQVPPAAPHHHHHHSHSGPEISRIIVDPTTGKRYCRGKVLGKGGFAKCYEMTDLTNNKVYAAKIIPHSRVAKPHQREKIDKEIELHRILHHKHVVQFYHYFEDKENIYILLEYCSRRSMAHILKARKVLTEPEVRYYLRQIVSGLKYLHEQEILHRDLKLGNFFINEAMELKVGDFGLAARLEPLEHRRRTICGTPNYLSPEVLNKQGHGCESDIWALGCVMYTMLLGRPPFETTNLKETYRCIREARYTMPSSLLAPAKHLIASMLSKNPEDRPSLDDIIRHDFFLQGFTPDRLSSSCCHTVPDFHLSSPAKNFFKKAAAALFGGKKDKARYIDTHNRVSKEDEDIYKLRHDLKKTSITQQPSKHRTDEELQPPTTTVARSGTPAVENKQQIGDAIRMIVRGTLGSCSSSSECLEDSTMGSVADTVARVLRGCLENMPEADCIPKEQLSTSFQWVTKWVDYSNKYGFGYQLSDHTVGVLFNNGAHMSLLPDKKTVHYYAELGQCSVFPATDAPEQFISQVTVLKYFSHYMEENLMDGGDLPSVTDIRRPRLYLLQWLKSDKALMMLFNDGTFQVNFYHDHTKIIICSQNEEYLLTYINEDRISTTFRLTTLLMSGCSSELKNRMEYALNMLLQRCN

[12] = target: Serine/threonine-protein kinase D2 (Homo sapiens) (UniProt Q9BZL6); test: Inhibition of wild-type human partial length PRKD2 (A519 to E838 residues) expressed in bacterial expression system at 1 uM by Kinomescan method relative to control
Serine/threonine-protein kinase D2 (Homo sapiens), sequence (Q9BZL6 whole entry, the tested form may be a part): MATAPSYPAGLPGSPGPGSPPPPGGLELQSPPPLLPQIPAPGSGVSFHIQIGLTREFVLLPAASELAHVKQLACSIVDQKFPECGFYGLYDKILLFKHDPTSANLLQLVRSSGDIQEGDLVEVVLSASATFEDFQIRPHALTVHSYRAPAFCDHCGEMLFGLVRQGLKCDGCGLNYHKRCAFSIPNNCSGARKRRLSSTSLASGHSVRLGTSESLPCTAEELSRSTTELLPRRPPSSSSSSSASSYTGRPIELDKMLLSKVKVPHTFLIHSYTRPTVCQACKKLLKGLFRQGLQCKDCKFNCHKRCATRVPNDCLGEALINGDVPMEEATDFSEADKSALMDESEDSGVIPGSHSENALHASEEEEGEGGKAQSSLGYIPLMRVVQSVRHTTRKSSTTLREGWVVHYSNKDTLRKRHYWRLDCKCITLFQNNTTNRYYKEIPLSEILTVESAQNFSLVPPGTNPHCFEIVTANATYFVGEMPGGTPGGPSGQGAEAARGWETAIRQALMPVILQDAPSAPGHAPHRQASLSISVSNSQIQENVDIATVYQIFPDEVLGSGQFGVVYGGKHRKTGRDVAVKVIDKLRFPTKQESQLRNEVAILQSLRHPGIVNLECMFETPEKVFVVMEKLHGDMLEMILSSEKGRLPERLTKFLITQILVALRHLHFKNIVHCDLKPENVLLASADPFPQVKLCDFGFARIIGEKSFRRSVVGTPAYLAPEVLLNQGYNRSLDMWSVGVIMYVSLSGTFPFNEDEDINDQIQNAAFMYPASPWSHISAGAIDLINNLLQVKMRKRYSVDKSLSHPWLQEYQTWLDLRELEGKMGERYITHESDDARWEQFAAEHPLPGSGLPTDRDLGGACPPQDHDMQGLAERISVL

[13] = target: Protein-tyrosine kinase 2-beta (Homo sapiens) (UniProt Q14289); test: Inhibition of wild-type human full length PYK2 (M1 to E967 residues) expressed in bacterial expression system at 1 uM by Kinomescan method relative to control
[14] = target: Ribosomal protein S6 kinase alpha-4 (Homo sapiens) (UniProt O75676); test: Inhibition of wild-type human partial length C-terminal RPS6KA4 kinase domain 2 (M375 to T705 residues) expressed in mammalian expression system at 1 uM by Kinomescan method relative to control
[15] = target: Serine/threonine-protein kinase TAO2 (Homo sapiens) (UniProt Q9UL54); test: Inhibition of wild-type human partial length TAOK2 (M1 to A320 residues) expressed in mammalian expression system at 1 uM by Kinomescan method relative to control
[16] = target: Atypical kinase COQ8A, mitochondrial (Homo sapiens) (UniProt Q8NI60); test: Inhibition of wild-type human […] ADCK3 (M280 to Q647 residues) expressed in bacterial expression system at 10 uM by Kinomescan method relative to control
[17] = target: CDK4/Cyclin D3 (Homo sapiens) (UniProt P11802+P30281); test: Inhibition of wild-type human full length CDK4/cyclinD3 (M1 to E303 residues) expressed in mammalian expression system at 10 uM by Kinomescan method relative to control
[18] = tested on: Epidermal growth factor receptor (Homo sapiens), P00533 [UNDEFINED MUTATION]; test: Inhibition of human partial length EGFR L747-S752del/P753S mutant expressed in bacterial expression system at 10 uM by Kinomescan method relative to control
Epidermal growth factor receptor (Homo sapiens), P00533 [UNDEFINED MUTATION], sequence (P00533 whole entry, looked up, stated change not applied, the tested form may be a part): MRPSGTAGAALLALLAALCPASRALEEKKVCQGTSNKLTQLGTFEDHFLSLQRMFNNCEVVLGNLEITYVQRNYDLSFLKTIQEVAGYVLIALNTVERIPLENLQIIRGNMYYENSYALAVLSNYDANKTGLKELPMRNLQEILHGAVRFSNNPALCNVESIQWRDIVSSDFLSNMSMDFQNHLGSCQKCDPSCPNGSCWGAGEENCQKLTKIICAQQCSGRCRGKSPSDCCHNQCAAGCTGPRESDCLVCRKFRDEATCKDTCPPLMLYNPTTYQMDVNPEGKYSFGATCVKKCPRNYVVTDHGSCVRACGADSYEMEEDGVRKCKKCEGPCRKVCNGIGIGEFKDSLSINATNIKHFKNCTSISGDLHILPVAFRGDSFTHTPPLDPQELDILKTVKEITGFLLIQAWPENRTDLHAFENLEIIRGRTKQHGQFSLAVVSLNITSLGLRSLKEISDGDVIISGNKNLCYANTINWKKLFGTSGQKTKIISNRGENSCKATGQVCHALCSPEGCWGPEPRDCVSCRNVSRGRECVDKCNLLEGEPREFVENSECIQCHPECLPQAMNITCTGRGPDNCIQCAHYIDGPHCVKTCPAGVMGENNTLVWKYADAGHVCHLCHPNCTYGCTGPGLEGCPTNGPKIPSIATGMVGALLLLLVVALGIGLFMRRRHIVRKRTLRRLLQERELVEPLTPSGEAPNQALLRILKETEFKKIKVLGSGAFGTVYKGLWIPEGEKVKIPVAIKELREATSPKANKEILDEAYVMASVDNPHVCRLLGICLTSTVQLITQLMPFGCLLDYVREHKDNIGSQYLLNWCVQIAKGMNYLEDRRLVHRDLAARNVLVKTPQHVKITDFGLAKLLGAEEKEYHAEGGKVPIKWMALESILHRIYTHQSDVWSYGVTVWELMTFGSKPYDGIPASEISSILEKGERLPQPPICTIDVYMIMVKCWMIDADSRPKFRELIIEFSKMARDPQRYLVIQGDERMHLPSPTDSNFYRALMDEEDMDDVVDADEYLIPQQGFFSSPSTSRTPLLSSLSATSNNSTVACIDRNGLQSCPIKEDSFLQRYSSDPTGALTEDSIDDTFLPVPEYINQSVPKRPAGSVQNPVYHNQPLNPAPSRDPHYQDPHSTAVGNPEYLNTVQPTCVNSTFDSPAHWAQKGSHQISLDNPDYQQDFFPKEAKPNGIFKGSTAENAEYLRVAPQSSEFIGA

[19] = tested on: Epidermal growth factor receptor (Homo sapiens), P00533 [L861Q]; test: Inhibition of human partial length EGFR L861Q mutant (R669 to V1011 residues) expressed in bacterial expression system at 10 uM by Kinomescan method relative to control
[20] = target: Serine/threonine-protein kinase ICK (Homo sapiens) (UniProt Q9UPZ9); test: Inhibition of wild-type human partial length ICK (M1 to P314 residues) expressed in mammalian expression system at 10 uM by Kinomescan method relative to control
[21] = target: Serine/threonine-protein kinase 4 (Homo sapiens) (UniProt Q13043); test: Inhibition of wild-type human full length MST1 (M1 to F487 residues) expressed in bacterial expression system at 10 uM by Kinomescan method relative to control
[22] = target: Serine/threonine-protein kinase PAK 2 (Homo sapiens) (UniProt Q13177); test: Inhibition of wild-type human partial length PAK2 (P151 to R525 residues) expressed in bacterial expression system at 10 uM by Kinomescan method relative to control
Serine/threonine-protein kinase PAK 2 (Homo sapiens), sequence (Q13177 whole entry, the tested form may be a part): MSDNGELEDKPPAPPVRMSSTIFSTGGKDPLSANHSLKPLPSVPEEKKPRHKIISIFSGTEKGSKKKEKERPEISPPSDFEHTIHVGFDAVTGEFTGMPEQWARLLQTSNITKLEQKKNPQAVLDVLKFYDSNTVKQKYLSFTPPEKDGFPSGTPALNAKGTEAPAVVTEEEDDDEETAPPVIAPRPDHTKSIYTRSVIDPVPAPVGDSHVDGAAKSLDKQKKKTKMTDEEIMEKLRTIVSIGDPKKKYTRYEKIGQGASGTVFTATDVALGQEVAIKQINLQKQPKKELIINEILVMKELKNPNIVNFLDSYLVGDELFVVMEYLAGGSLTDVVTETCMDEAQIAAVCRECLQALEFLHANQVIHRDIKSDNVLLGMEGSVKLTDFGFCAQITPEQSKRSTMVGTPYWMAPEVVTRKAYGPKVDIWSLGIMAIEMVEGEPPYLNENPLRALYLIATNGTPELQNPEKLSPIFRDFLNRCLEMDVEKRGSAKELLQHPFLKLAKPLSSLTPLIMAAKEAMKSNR

[23] = target: 3-phosphoinositide-dependent protein kinase 1 (Homo sapiens) (UniProt O15530); test: Inhibition of wild-type human full length PDPK1 (M1 to Q556 residues) expressed in bacterial expression system at 10 uM by Kinomescan method relative to control
[24] = target: Serine/threonine-protein kinase PLK2 (Homo sapiens) (UniProt Q9NYY3); test: Inhibition of wild-type human partial length PLK2 (H58 to F354 residues) expressed in mammalian expression system at 10 uM by Kinomescan method relative to control
[25] = tested on: Proto-oncogene tyrosine-protein kinase receptor Ret (Homo sapiens), P07949 [V804L]; test: Inhibition of human partial length RET V804L mutant (E713 to D1014 residues) expressed in bacterial expression system at 10 uM by Kinomescan method relative to control
[26] = target: Serine/threonine-protein kinase Sgk1 (Homo sapiens) (UniProt O00141); test: Inhibition of wild-type human partial length SGK (I60 to L431 residues) expressed in mammalian expression system at 10 uM by Kinomescan method relative to control
[27] = target: Angiopoietin-1 receptor (Homo sapiens) (UniProt Q02763); test: Inhibition of wild-type human partial length TIE2 (N804 to T1112 residues) expressed in bacterial expression system at 10 uM by Kinomescan method relative to control

## O=C(Nc1cccc([C@@H]2CN(c3ncnc4[nH]ccc34)CCN2CCO)c1)Nc1c(F)cccc1N1CCCC1
[1]
  inhibition: 98%
[2]
  inhibition: 99%
[3]
  inhibition: 5.3%
[4]
  inhibition: 3.5%
[5]
  inhibition: 52%
[6]
  inhibition: 93%
[7]
  inhibition: 40%
[8]
  inhibition: 100%
[9]
  inhibition: 75%
[10]
  inhibition: 100%
[11]
  inhibition: 87%
[12]
  inhibition: 98%
[13]
  inhibition: 84%
[14]
  inhibition: 97%
[15]
  inhibition: 85%

## O=C(Nc1cccc([C@H]2CCCN(c3ncnc4[nH]ccc34)C2)c1)Nc1ccccc1N1CCCC1
[16]
  inhibition: 100%
[17]
  inhibition: 100%
[18]
  inhibition: 87%
[19]
  inhibition: 85%
[20]
  inhibition: 100%
[21]
  inhibition: 47%
[22]
  inhibition: 88%
[23]
  inhibition: 41%
[24]
  inhibition: 78%
[25]
  inhibition: 0.1%
[26]
  inhibition: 26%
[27]
  inhibition: 75%
